From patent US7868026B2, “Therapeutic compounds” (Pfizer Inc., priority 2005, dated 2011) come the findings set out here.

Holding throughout (format): biochemical
In test [1] the target is T1, CYP3A4 (Homo sapiens, UniProt P08684). The test is described as follows: Determination of IC50 against CYP3A4 by measurement of inhibition of testosterone metabolism (human liver microsomes, 6-β-OH-testosterone by LC-MS/MS). Also on record: 0.1 mg/mL human liver microsomes. To be noted: read-out: IC50 (Testo.). The method, boiled down:
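6-β-OH-testosterone formation was read by LC-MS/MS (MRM, internal standard, standard curve) after eight minutes. Reaction contained testosterone 25 μM, NADPH 1 mM and microsomal protein 0.1 mg/mL in pH 7.4 potassium phosphate (100 mM).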

In test [2] the target is T1, CYP3A4. As to the kind of experiment: Determination of IC50 against CYP3A4 by measurement of inhibition of midazolam metabolism (human liver microsomes, 1-hydroxymidazolam by LC-MS/MS). The settings on record: 2 μM midazolam, 0.1 mg/mL human liver microsomes. Also on record: 0.1 mg/mL human liver microsomes. The method, boiled down:
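Human liver microsomes (0.1 mg/mL) incubated 8 min with 2 μM midazolam and 1 mM NADPH in 100 mM potassium phosphate, pH 7.4. 1-Hydroxymidazolam quantified by LC-MS/MS (MRM) as peak area ratio to internal standard against a metabolite standard curve.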

Test [3] concerns the target T1, CYP3A4. As to the kind of experiment: Determination of compound Kiapp against recombinant CYP3A4 enzyme (BFC fluorescent substrate). The method, boiled down:
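Kiapp derived from initial velocities over the first 5 min of BFC (5 uM) oxidation, using Morrison's tight-binding equation for non-partial and Szedlacsek's for partial inhibitors. Inhibitor first pre-incubated ≥30 min with CYP3A4 (5.5 or 8 nM, ±b5) in pH 7.0 phosphate/TCEP/2% DMF at room temperature; 200 uM NADPH initiated.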

[4] abbreviates: Baculo. enzyme preparation, read-out: Kiapp (BFC, Baculo.).
Where [5] appears, read: Super. enzyme preparation, read-out: Kiapp (BFC, Super.).

Structures are written as SMILES. Like-named read-outs stand apart in the source and are kept apart here.

T1 sequence (P08684 whole entry): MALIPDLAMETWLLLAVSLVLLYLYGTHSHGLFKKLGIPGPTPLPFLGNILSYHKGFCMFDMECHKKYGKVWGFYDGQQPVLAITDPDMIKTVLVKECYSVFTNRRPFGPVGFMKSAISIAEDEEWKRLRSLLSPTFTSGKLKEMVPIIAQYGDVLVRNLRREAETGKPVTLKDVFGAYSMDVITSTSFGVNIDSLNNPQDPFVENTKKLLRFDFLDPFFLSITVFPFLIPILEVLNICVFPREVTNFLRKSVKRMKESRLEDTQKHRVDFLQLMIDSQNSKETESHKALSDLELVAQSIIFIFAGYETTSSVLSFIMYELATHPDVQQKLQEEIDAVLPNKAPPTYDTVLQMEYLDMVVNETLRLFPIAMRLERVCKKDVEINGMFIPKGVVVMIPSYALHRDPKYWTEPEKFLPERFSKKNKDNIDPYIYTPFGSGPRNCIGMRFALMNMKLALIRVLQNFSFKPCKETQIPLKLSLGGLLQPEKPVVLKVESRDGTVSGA

In the case of `CCOc1cncc(NS(=O)(=O)c2ccccc2C(=O)NCc2ccc(F)c(F)c2)c1` [Example 290, N-(3,4-difluorobenzyl)-2-{[(5-ethoxypyridin-3-yl)amino]sulfonyl}benzamide], the IC50 at CYP3A4 [1] was determined as 16 nM; on CYP3A4 [2], 4 nM. Moreover, the Ki is 14.6 nM at CYP3A4 [3] (setting [4]) and 3.94 nM on CYP3A4 [3] (setting [5]).

With `CCOc1cncc(NS(=O)(=O)c2ccccc2C(=O)NCc2ccc(Cl)c(Cl)c2)c1` [Example 291, N-(3,4-dichlorobenzyl)-2-{[(5-ethoxypyridin-3-yl)amino]sulfonyl}benzamide], the IC50 turned out to be 27 nM on CYP3A4 [1] and 21 nM on CYP3A4 [2]. Moreover, the Ki at CYP3A4 [3] (setting [4]) worked out at 4.5 nM; at CYP3A4 [3] (setting [5]), 2.98 nM.

For the compound `CCOc1cncc(NS(=O)(=O)c2ccccc2C(=O)NCCc2ccccc2C)c1` [Example 292, 2-{[(5-ethoxypyridin-3-yl)amino]sulfonyl}-N-[2-(2-methylphenyl)ethyl]benzamide], the 50% inhibitory concentration (IC50) at CYP3A4 [1] is 16 nM; at CYP3A4 [2], less than 3 nM. Moreover, the figures for the Ki at CYP3A4 [3] (setting [4]) and at CYP3A4 [3] (setting [5]) were 1.6 nM and 0.618 nM, respectively.

`CCOc1cncc(NS(=O)(=O)c2ccccc2C(=O)NCC2CC2)c1` [Example 293, N-(cyclopropylmethyl)-2-{[(5-ethoxypyridin-3-yl)amino]sulfonyl}benzamide]: the results for the IC50 at CYP3A4 [1] and at CYP3A4 [2] were 145 nM and 81 nM, respectively. Moreover, the Ki turned out to be 268 nM at CYP3A4 [3] (setting [4]) and 58.1 nM at CYP3A4 [3] (setting [5]).

With `CCOc1cncc(NS(=O)(=O)c2ccccc2C(=O)NC(C)(C)C)c1` [Example 294, N-(tert-butyl)-2-{[(5-ethoxy-pyridin-3-yl)amino]sulfonyl} benzamide], the values for the IC50 at CYP3A4 [1] and on CYP3A4 [2] were 57 nM and 24 nM, respectively. For the same compound, the Ki on CYP3A4 [3] (setting [4]) was determined as 135 nM; on CYP3A4 [3] (setting [5]) it was 32.1 nM.

For the compound `COc1cncc(NS(=O)(=O)c2ccc(Cl)cc2C(=O)NCCC(C)C)c1` [Example 295, 5-chloro-2-{[(5-methoxypyridin-3-yl)amino]sulfonyl}-N-(3-methylbutyl)benzamide], the values for the concentration for half-maximal inhibition (IC50) on CYP3A4 [1] and on CYP3A4 [2] were 231 nM and 42 nM, respectively. Further, the results for the Ki at CYP3A4 [3] (setting [4]) and on CYP3A4 [3] (setting [5]) were 184 nM and 42 nM, respectively.

With `CCOc1cncc(NS(=O)(=O)c2ccccc2C(=O)NCCC(C)C)c1` [Example 296, 2-{[(5-ethoxypyridin-3-yl)amino]sulfonyl}-N-(3-methylbutyl)benzamide], the half-inhibitory concentration (IC50) at CYP3A4 [1] amounted to 90 nM; at CYP3A4 [2] it was 12 nM. In addition, the Ki worked out at 35.8 nM on CYP3A4 [3] (setting [4]) and 9.32 nM at CYP3A4 [3] (setting [5]).

As to `CCOc1cncc(NS(=O)(=O)c2ccccc2C(=O)N2CCCC2)c1` [Example 297, N-(5-ethoxypyridin-3-yl)-2-(pyrrolidin-1-ylcarbonyl)benzenesulfonamide], the 50% inhibitory concentration (IC50) at CYP3A4 [1] was more than 750 nM; on CYP3A4 [2], 170 nM. Moreover, the Ki on CYP3A4 [3] (setting [4]) amounted to 444 nM; at CYP3A4 [3] (setting [5]), 110 nM.

Turning to `CCOc1cncc(NS(=O)(=O)c2ccccc2C(=O)N2CCCC(C)(C)C2)c1` [Example 298, 2-[(3,3-dimethylpiperidin-1-yl)carbonyl]-N-(5-ethoxypyridin-3-yl)benzenesulfonamide], the IC50 on CYP3A4 [1] came to 135 nM; at CYP3A4 [2] it was 31 nM. Also, the results for the Ki on CYP3A4 [3] (setting [4]) and at CYP3A4 [3] (setting [5]) were 58.5 nM and 15.6 nM, respectively.

Consider `CCOc1cncc(NS(=O)(=O)c2ccccc2C(=O)NC(C)C2CC2)c1` (centres unmarked) [Example 299, N-(1-cyclopropylethyl)-2-{[(5-ethoxypyridin-3-yl)amino]sulfonyl}benzamide], for which the IC50 on CYP3A4 [1] was found to be 53 nM; at CYP3A4 [2] it was 26 nM. The figures for the Ki at CYP3A4 [3] (setting [4]) and on CYP3A4 [3] (setting [5]) were 56.5 nM and 20.6 nM, respectively.

Take `CCOc1cncc(NS(=O)(=O)c2ccccc2C(=O)NC(C)(C)CC)c1` [Example 300, N-(1,1-dimethylpropyl)-2-{[(5-ethoxypyridin-3-yl)amino]sulfonyl}benzamide]: the IC50 amounted to 39 nM on CYP3A4 [1] and 16 nM on CYP3A4 [2]. For the same compound, the Ki on CYP3A4 [3] (setting [4]) turned out to be 57.6 nM; at CYP3A4 [3] (setting [5]), 19.5 nM.

For `CCOc1cncc(NS(=O)(=O)c2ccccc2C(=O)NC2CC2)c1` [Example 301, N-cyclopropyl-2-{[(5-ethoxypyridin-3-yl)amino]sulfonyl}benzamide], the IC50 at CYP3A4 [1] was more than 750 nM; on CYP3A4 [2] it was 140 nM. Further, the Ki on CYP3A4 [3] (setting [4]) came out at 409 nM; at CYP3A4 [3] (setting [5]) it was 152 nM.

For the compound `CCOc1cncc(NS(=O)(=O)c2ccccc2C(=O)NC2CCCCC2)c1` [Example 302, N-cyclohexyl-2-{[(5-ethoxypyridin-3-yl)amino]sulfonyl}benzamide], the IC50 on CYP3A4 [1] came to 110 nM; on CYP3A4 [2], 23 nM. In addition, the Ki stood at 78.9 nM at CYP3A4 [3] (setting [4]) and 24.5 nM at CYP3A4 [3] (setting [5]).

For the compound `COc1cncc(NS(=O)(=O)c2ccc(F)cc2C(=O)NCCC(C)C)c1` [Example 303, 5-fluoro-2-{[(5-methoxypyridin-3-yl)amino]sulfonyl}-N-(3-methylbutyl)benzamide], the IC50 at CYP3A4 [1] worked out at 156 nM; on CYP3A4 [2] it was 30 nM. Besides, the values for the Ki on CYP3A4 [3] (setting [4]) and on CYP3A4 [3] (setting [5]) were 118 nM and 31.6 nM, respectively.

On to `COc1cncc(NS(=O)(=O)c2ccc(F)cc2C(=O)N(C)C(C)C)c1` [Example 304, 5-fluoro-N-isopropyl-2-{[(5-methoxypyridin-3-yl)amino]sulfonyl}-N-methylbenzamide], for which the half-inhibitory concentration (IC50) is more than 750 nM on CYP3A4 [1] and 119 nM at CYP3A4 [2]. Moreover, the Ki on CYP3A4 [3] (setting [4]) worked out at 536 nM; at CYP3A4 [3] (setting [5]), 171 nM.

As for `CCOc1cncc(NS(=O)(=O)c2ccccc2C(=O)N2CCOCC2)c1` [Example 305, N-(5-ethoxypyridin-3-yl)-2-(morpholin-4-ylcarbonyl)benzenesulfonamide], the IC50 at CYP3A4 [1] was more than 750 nM; on CYP3A4 [2] it was 347 nM. The Ki at CYP3A4 [3] (setting [4]) was found to be 753 nM; on CYP3A4 [3] (setting [5]) it was 270 nM.

In the case of `CCCCNC(=O)c1ccccc1S(=O)(=O)Nc1cncc(OCC)c1` [Example 306, N-butyl-2-{[(5-ethoxypyridin-3-yl)amino]sulfonyl}benzamide], the half-maximal inhibitory concentration (IC50) worked out at 48 nM at CYP3A4 [1] and 32 nM at CYP3A4 [2]. In addition, the Ki on CYP3A4 [3] (setting [4]) was found to be 77.8 nM; on CYP3A4 [3] (setting [5]), 24.9 nM.

Regarding `COc1cncc(NS(=O)(=O)c2ccc(F)cc2C(=O)NCc2ccc(F)cc2)c1` [Example 307, 5-fluoro-N-(4-fluorobenzyl)-2-{[(5-methoxypyridin-3-yl)amino]sulfonyl}benzamide], the IC50 was 36 nM on CYP3A4 [1] and 44 nM on CYP3A4 [2]. The Ki on CYP3A4 [3] (setting [4]) worked out at 143 nM; on CYP3A4 [3] (setting [5]), 16.8 nM.

For `COc1cncc(NS(=O)(=O)c2ccc(Cl)cc2C(=O)N2CCCC(C)C2)c1` (centres unmarked) [Example 308, 4-chloro-N-(5-methoxypyridin-3-yl)-2-[(3-methylpiperidin-1-yl)carbonyl]benzenesulfonamide], the half-maximal inhibitory concentration (IC50) came to 95 nM on CYP3A4 [1] and 62 nM on CYP3A4 [2]. For the same compound, the values for the Ki at CYP3A4 [3] (setting [4]) and at CYP3A4 [3] (setting [5]) were 513 nM and 42 nM, respectively.

As to `COc1cncc(NS(=O)(=O)c2ccc(Cl)cc2C(=O)N(C)C(C)C)c1` [Example 309, 5-chloro-N-isopropyl-2-{[(5-methoxypyridin-3-yl)amino]sulfonyl}-N-methylbenzamide], the IC50 at CYP3A4 [1] worked out at 427 nM; on CYP3A4 [2] it was 149 nM. Also, the figures for the Ki on CYP3A4 [3] (setting [4]) and on CYP3A4 [3] (setting [5]) were 808 nM and 145 nM, respectively.
